# In ChEMBL document CHEMBL4619728, “A chemically stable peptide agonist to neuromedin U receptor type 2” (Bioorg Med Chem, 2020):
# Calls of active or inactive are those of the source. The rule behind the calls is not given here. Square brackets hold non-standard residues; d marks the D form. Side chains are listed from the residue outwards. Peptide text beside a SMILES is read from it. * marks the point of attachment. Propanoyl(3-cHex) = O=C(CCC1CCCCC1)*; 2Pal = N[C@@H](Cc1ccccn1)C(=O)O; 3Pal = N[C@@H](Cc1cccnc1)C(=O)O; 4Pal = N[C@@H](Cc1ccncc1)C(=O)O; hSer = N[C@@H](CCO)C(=O)O; Api = NC1(C(=O)O)CCNCC1; Dab = NCC[C@H](N)C(=O)O; Dap = NC[C@H](N)C(=O)O
# Legend:
# [1] = biological target: T1, Neuromedin-U receptor 1 (Homo sapiens) (UniProt Q9HB89); assay: Agonist activity at human NMUR1 expressed in CHO cells at 10 nM by Fluo-4-AM dye based calcium mobilization assay; assay type: functional, cell-based
# T1 sequence (whole entry): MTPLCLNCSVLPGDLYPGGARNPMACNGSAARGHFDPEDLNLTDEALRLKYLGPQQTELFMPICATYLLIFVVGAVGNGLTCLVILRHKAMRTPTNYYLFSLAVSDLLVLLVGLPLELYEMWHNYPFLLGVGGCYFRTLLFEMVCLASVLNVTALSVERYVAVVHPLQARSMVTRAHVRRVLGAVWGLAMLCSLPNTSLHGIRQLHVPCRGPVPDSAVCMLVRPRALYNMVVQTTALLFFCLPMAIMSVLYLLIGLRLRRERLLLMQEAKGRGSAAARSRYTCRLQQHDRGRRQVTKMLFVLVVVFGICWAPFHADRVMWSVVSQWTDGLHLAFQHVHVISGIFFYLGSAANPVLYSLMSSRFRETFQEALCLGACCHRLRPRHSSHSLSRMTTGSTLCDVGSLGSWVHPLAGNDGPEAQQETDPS
# Neuromedin-U receptor 2 [2] = biological target: T2, Neuromedin-U receptor 2 (Homo sapiens, UniProt Q9GZQ4); assay: Agonist activity at human NMUR2 expressed in CHO cells at 10 nM by Fluo-4-AM dye based calcium mobilization assay; assay type: functional, cell-based
# T2 sequence (Q9GZQ4 whole entry): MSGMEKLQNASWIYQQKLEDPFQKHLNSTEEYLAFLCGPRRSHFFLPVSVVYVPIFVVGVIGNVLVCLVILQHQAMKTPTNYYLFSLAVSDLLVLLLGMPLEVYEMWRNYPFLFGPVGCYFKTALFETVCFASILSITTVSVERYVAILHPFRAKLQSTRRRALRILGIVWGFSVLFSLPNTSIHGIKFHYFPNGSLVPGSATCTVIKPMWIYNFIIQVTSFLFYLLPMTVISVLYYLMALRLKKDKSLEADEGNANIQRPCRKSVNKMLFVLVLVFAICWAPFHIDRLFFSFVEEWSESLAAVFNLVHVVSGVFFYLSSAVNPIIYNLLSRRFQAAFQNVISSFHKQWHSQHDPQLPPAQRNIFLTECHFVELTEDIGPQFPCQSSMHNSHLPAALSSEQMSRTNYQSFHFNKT
# [3] = biological target: T1, Neuromedin-U receptor 1 (Homo sapiens); assay: Agonist activity at human NMUR1 expressed in CHO cells at 100 nM by Fluo-4-AM dye based calcium mobilization assay; assay type: functional, cell-based
# Neuromedin-U receptor 2 [4] = biological target: T2, Neuromedin-U receptor 2; assay: Agonist activity at human NMUR2 expressed in CHO cells at 100 nM by Fluo-4-AM dye based calcium mobilization assay; assay type: functional, cell-based
# [5] = biological target: T1, Neuromedin-U receptor 1 (Homo sapiens); assay: Agonist activity at human NMUR1 expressed in CHO cells at 1 nM by Fluo-4-AM dye based calcium mobilization assay; assay type: functional, cell-based
# Neuromedin-U receptor 2 [6] = biological target: T2, Neuromedin-U receptor 2; assay: Agonist activity at human NMUR2 expressed in CHO cells at 1 nM by Fluo-4-AM dye based calcium mobilization assay; assay type: functional, cell-based
# [7] = biological target: Neuromedin-U receptor 2 (Mus musculus) (UniProt Q8BZ39); assay: Agonist activity at mouse NMUR2 expressed in human HEK293 cells at 10 nM Fluo-4-AM dye based calcium mobilization assay relative to control; assay type: functional, cell-based
# Sequence of Neuromedin-U receptor 2 (Mus musculus) (Q8BZ39 whole entry): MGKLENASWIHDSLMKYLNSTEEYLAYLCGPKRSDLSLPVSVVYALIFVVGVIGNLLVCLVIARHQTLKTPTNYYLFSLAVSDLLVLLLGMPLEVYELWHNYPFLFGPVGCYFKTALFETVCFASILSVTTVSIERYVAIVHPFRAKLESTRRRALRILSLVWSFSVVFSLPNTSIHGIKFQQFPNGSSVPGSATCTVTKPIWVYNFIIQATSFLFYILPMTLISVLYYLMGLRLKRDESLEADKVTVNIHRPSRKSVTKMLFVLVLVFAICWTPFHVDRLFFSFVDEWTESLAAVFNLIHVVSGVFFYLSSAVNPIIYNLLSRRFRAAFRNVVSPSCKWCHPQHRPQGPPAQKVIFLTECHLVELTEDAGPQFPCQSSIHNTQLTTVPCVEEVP
# [8] = Chemical stability of compound in pH 5.5 citrate buffer at 50 uM assessed as compound recovery after 72 hrs by spectrometric analysis; assay type: physicochemical; conditions: read-out: Drug recovery
# [9] = Chemical stability of compound in pH 7.4 phosphate buffer at 50 uM assessed as compound recovery after 72 hrs by spectrometric analysis; assay type: physicochemical; conditions: read-out: Drug recovery
# Neuromedin-U receptor 2 [10] = biological target: T2, Neuromedin-U receptor 2; assay: Agonist activity at human NMUR2 expressed in CHO cells by Fluo-4-AM dye based calcium mobilization assay; assay type: functional, cell-based
# [11] = biological target: Neuromedin-U receptor 2 (Mus musculus) (UniProt Q8BZ39); assay: Agonist activity at mouse NMUR2 expressed in human HEK293 cells Fluo-4-AM dye based calcium mobilization assay; assay type: functional, cell-based
# [12] = Toxicity in ddY mouse assessed as reduction in body weight gain at 25 to 250 ug intranasal administration; conditions: in vivo, inhaled_or_intranasal
# [13] = Toxicity in ddY mouse assessed as reduction in body weight gain at 20 ug ,ip; conditions: in vivo
# [14] = Chemical stability of compound in pH 7.4 HEPES buffer at 50 uM assessed as compound recovery after 72 hrs by spectrometric analysis; assay type: physicochemical; conditions: read-out: Drug recovery
# [15] = Chemical stability of compound in pH 5.5 citrate-posphate buffer at 50 uM assessed as compound recovery after 72 hrs by spectrometric analysis; assay type: physicochemical; conditions: citrate-phosphate buffer, read-out: Drug recovery
# [16] = Chemical stability of compound in pH 5.5 acetate buffer at 50 uM assessed as compound recovery after 72 hrs by spectrometric analysis; assay type: physicochemical; conditions: read-out: Drug recovery
# [17] = Chemical stability of compound in MES buffer pH 5.5 at 100 mM assessed as compound recovery after 72 hrs by spectrometric analysis; assay type: physicochemical; conditions: read-out: Drug recovery
smiles,measurement,setting,value
CC(C)C[C@H](NC(=O)CCC1CCCCC1)C(=O)N[C@@H](CC(C)C)C(=O)N[C@H](C(=O)N1CCC[C@H]1C(=O)N[C@@H](CCCNC(=N)N)C(=O)N[C@@H](CC(N)=O)C(N)=O)[C@@H](C)O,Activity,[1],inactive
same,Activity,Neuromedin-U receptor 2 [2],inactive
CC(C)C[C@H](NC(=O)CCC1CCCCC1)C(=O)N[C@@H](CC(C)C)C(=O)N[C@H](C(=O)N1CCC[C@H]1C(=O)N[C@@H](CCCNC(=N)N)C(=O)N[C@@H](CC(N)=O)C(N)=O)[C@H](C)O,Activity,[1],inactive
same,Activity,Neuromedin-U receptor 2 [2],inactive
CC(C)C[C@H](NC(=O)CCC1CCCCC1)C(=O)N[C@@H](CC(C)C)C(=O)NCC[C@H](N)C(=O)N1CCC[C@H]1C(=O)N[C@@H](CCCNC(=N)N)C(=O)N[C@@H](CC(N)=O)C(N)=O (H-[Dab]([Leu-Leu-Propanoyl(3-cHex)])PRN-NH2),Activity,[3],6%
same,Activity,Neuromedin-U receptor 2 [4],6%
CC(C)C[C@H](NC(=O)CCC1CCCCC1)C(=O)N[C@@H](CC(C)C)C(=O)N[C@@H](CS)C(=O)N1CCC[C@H]1C(=O)N[C@@H](CCCNC(=N)N)C(=O)N[C@@H](CC(N)=O)C(N)=O ({Propanoyl(3-cHex)}-LLCPRN-NH2),Activity,[1],inactive
same,Activity,Neuromedin-U receptor 2 [2],inactive
CC(C)C[C@H](NC(=O)CCC1CCCCC1)C(=O)N[C@@H](CC(C)C)C(=O)N[C@@H](CC(=O)O)C(=O)N1CCC[C@H]1C(=O)N[C@@H](CCCNC(=N)N)C(=O)N[C@@H](CC(N)=O)C(N)=O ({Propanoyl(3-cHex)}-LLDPRN-NH2),Activity,[5],inactive
same,Activity,Neuromedin-U receptor 2 [6],inactive
same,Activity,[3],inactive
same,Activity,Neuromedin-U receptor 2 [4],inactive
CC(C)C[C@H](NC(=O)CCC1CCCCC1)C(=O)N[C@@H](CC(C)C)C(=O)N[C@@H](CC(N)=O)C(=O)N1CCC[C@H]1C(=O)N[C@@H](CCCNC(=N)N)C(=O)N[C@@H](CC(N)=O)C(N)=O ({Propanoyl(3-cHex)}-LLNPRN-NH2),Activity,[5],inactive
same,Activity,Neuromedin-U receptor 2 [6],inactive
COC[C@H](NC(=O)[C@H](CC(C)C)NC(=O)[C@H](CC(C)C)NC(=O)CCC1CCCCC1)C(=O)N1CCC[C@H]1C(=O)N[C@@H](CCCNC(=N)N)C(=O)N[C@@H](CC(N)=O)C(N)=O ({Propanoyl(3-cHex)}-LLS(Me)PRN-NH2),Activity,[1],inactive
same,Activity,Neuromedin-U receptor 2 [2],inactive
CC(C)C[C@H](NC(=O)CCC1CCCCC1)C(=O)N[C@@H](CC(C)C)C(=O)N[C@@H](CO)C(=O)N1CCC[C@H]1C(=O)N[C@@H](CCCNC(=N)N)C(=O)N[C@@H](CC(N)=O)C(N)=O ({Propanoyl(3-cHex)}-LLSPRN-NH2),Activity,[5],inactive
same,Activity,Neuromedin-U receptor 2 [6],inactive
same,Activity,[3],Active
same,Activity,Neuromedin-U receptor 2 [4],Active
CC(C)C[C@H](NC(=O)CCC1CCCCC1)C(=O)N[C@@H](CC(C)C)C(=O)N[C@@H](Cc1ccccn1)C(=O)N1CCC[C@H]1C(=O)N[C@@H](CCCNC(=N)N)C(=O)N[C@@H](CC(N)=O)C(N)=O ({Propanoyl(3-cHex)}-LL[2Pal]PRN-NH2),Activity,[7],20 to 40%
CC(C)C[C@H](NC(=O)CCC1CCCCC1)C(=O)N[C@@H](CC(C)C)C(=O)N[C@@H](Cc1cccnc1)C(=O)N1CCC[C@H]1C(=O)N[C@@H](CCCNC(=N)N)C(=O)N[C@@H](CC(N)=O)C(N)=O ({Propanoyl(3-cHex)}-LL[3Pal]PRN-NH2),Activity,[7],20 to 40%
CC(C)C[C@H](NC(=O)CCC1CCCCC1)C(=O)N[C@@H](CC(C)C)C(=O)N[C@@H](Cc1ccncc1)C(=O)N1CCC[C@H]1C(=O)N[C@@H](CCCNC(=N)N)C(=O)N[C@@H](CC(N)=O)C(N)=O ({Propanoyl(3-cHex)}-LL[4Pal]PRN-NH2),Activity,[7],20 to 40%
CC(C)C[C@H](NC(=O)CCC1CCCCC1)C(=O)N[C@@H](CC(C)C)C(=O)NC1(C(=O)N2CCC[C@H]2C(=O)N[C@@H](CCCNC(=N)N)C(=O)N[C@@H](CC(N)=O)C(N)=O)CCNCC1 ({Propanoyl(3-cHex)}-LL[Api]PRN-NH2),Activity,[7],inactive
CC(C)C[C@H](NC(=O)CCC1CCCCC1)C(=O)N[C@@H](CC(C)C)C(=O)N[C@@H](CCN)C(=O)N1CCC[C@H]1C(=O)N[C@@H](CCCNC(=N)N)C(=O)N[C@@H](CC(N)=O)C(N)=O ({Propanoyl(3-cHex)}-LL[Dab]PRN-NH2),"remaining at 72 h, 50 µM",[8],98%
same,"remaining at 72 h, 50 µM",[9],95%
same,Activity,Neuromedin-U receptor 2 [10],Dose-dependent effect
same,EC50,Neuromedin-U receptor 2 [10],2.2 nM
same,Activity,[11],Active
same,Activity,[12],Toxic
same,Activity,[13],Toxic
same,Activity,[7],100%
CC(C)C[C@H](NC(=O)CCC1CCCCC1)C(=O)N[C@@H](CC(C)C)C(=O)N[C@@H](CN)C(=O)N1CCC[C@H]1C(=O)N[C@@H](CCCNC(=N)N)C(=O)N[C@@H](CC(N)=O)C(N)=O ({Propanoyl(3-cHex)}-LL[Dap]PRN-NH2),"remaining at 72 h, 50 µM",[14],92%
same,"remaining at 72 h, 50 µM",[15],64%
same,"remaining at 72 h, 50 µM",[8],81%
same,"remaining at 72 h, 50 µM",[16],89%
same,remaining at 72 h,[17],93%
same,"remaining at 72 h, 50 µM",[9],87%
CC(C)C[C@H](NC(=O)CCC1CCCCC1)C(=O)N[C@@H](CC(C)C)C(=O)N[C@@H](CCO)C(=O)N1CCC[C@H]1C(=O)N[C@@H](CCCNC(=N)N)C(=O)N[C@@H](CC(N)=O)C(N)=O ({Propanoyl(3-cHex)}-LL[hSer]PRN-NH2),Activity,[1],inactive
same,Activity,Neuromedin-U receptor 2 [2],inactive
